Experiments:
[1] = Anti-bicuculline action; assay type: in vivo, male ddY mice; conditions: Mus musculus; (+) bicuculline 0.6 mg/kg i.v. 1 hour after oral administration; prevention of tonic extention; read-out: Antibicuculline effect ED50
Method: The anti-bicuculline action of the test compounds was done according to the method reported in Life Science, vol. 21, 1779 (1977).
The test was carried out using groups of 7-14 male ddY mice weighing 20-25 g. The animals were challenged with (+) bicuculline (0.6 mg/kg i.v.) 1 hour after the oral administration of the test compounds. The ED50 values were calculated by the probit method as the dose which prevent the tonic extention in half of the animals.

[2] = target: benzodiazepine receptors; assay: 3H-diazepam (3H-DZP) binding assay, displacement at benzodiazepine receptors; design: species or system Wistar rats (cerebral cortex); conditions: tritiated diazepam 2 nM, 0° C., 20 min; read-out: Affinity for BZP receptors Ki
Method: ^3 H-DZP binding assay was carried out according to the previously described method in Life Science, vol. 20, 2101 (1977).
The crude cynaptosomal fraction prepared from the cerebral cortex of Wistar rats aged 9-10 weeks was suspended in 50 mM Tris-hydrochloric acid buffer (pH 7.4) containing 120 mM sodium chloride and 5 mM potassium chloride. These suspensions were used for the following experiment.
The reaction was started by the addition of synaptosomal suspension to the solution containing tritiated diazepam (final concentration is 2 nM) and a known concentration of test compounds at 0° C. for 20 min. The binding was stopped by the filtration under vacuum through Whatman GF/B filters and the filters were immediately washed with the above-mentioned buffer. The radioactivity on the filters was measured by a liquid scintillation counter.
The binding affinities of the compound of the present invention for benzodiazepine receptors are evaluated from its displacement ability for tritiated diazepam at its binding site, which is represented as Ki value (nM).

[3] = Effects on seizure induced by maximal electroshock (anti-MES action); assay type: in vivo, male ddY mice; conditions: 1 hour before MES
Method: The test was carried out using groups of five male ddY mice. The animals were challenged with a maximal electroshock (MES, AC 2000 V, 12.5 mA, 0.2 sec) delivered through bilatesal corneal electrodes 1 hour after the oral or intraperitoneal administration of the test compounds. Antagonism of MES-induced seizure was defined as the absence of the tonic extention.

[4] = tested on: benzodiazepine receptors; conditions: U.S. Pat. No. 4,849,421; cited from earlier work
[5] = Antianxiety effect (Vogel type conflict test); assay type: in vivo, Wistar rats; conditions: Rattus norvegicus, po; orally 1 hr before test; P<0.05 vs 0.5% MC control; read-out: Antianxiety effect MED (minimum effective dose)
Source text: The experimental procedure used modified the method of Vogel et al (1971). Wistar rats were used. They were deprived of water for 72 hr before the test. The rats were placed in a plexiglas conflict test box (light compartment: 38×38×20 cm, dark compartment: 10×10×20 cm). A water bottle with a stainless steel spout was fitted to the middle of the outside, so that the spout extended 3 cm into the box at a height of 10 cm above the grid floor. A drinkometer circuit (Ohara Inc., Nihon Koden) was connected with the spout and the number of licks were counted. The rat was placed into the apparatus where an electric shock (0.2-0.3 mA, 0.3 sec) was given once every 20th lick. After the rat received the first electric shock, the number of shocks were recorded during the subsequent 3 min test period. The test compounds were administered orally 1 hr before the test. The minimum effective dose (MED) was defined as the lowest dose producing a statistically significant difference between 0.5% MC-treated (control) and test drug treated punished responses (One-way ANOVA test; P<0.05).

Structure (SMILES)	ED50 [1]	Ki [2]	Inhibitory rate (anti-MES) ([3]; 30 mg/kg i.p.)	other results
CCCc1cc2c(s1)[S+]([O-])CCc1cc(=O)n(-c3ccc(Cl)cc3)nc1-2 (centres unmarked) [Example 70, 2-(4-Chlorophenyl)-9-propyl-5,6-dihydrothienol[2',3':2,3]thiepino[4,5-c]pyridazin-3(2H)-one 7-oxide]	0.62 mg/kg	0.62 nM		
CCc1cc2c(s1)SCCc1cc(=O)n(-c3ccc(OC)cc3)nc1-2 [Example 58, 9-ethyl-2-(4-methoxyphenyl)-5,6-dihydrothieno[2',3':2,3]thiepino[4,5-c]pyridazin-3(2H)-one]	0.4 mg/kg	0.56 nM		
O=C1CC2CCSc3sccc3C2=NN1c1ccc(Cl)cc1 (centres unmarked) [Example 14]			100%	Inhibitory rate (anti-MES) ([3]; 30 mg/kg p.o.): 40%; Inhibitory rate (anti-MES) ([3]; 100 mg/kg p.o.): 100%
O=c1cc2c(nn1-c1ccc(Cl)cc1)-c1ccccc1SCC2 [2-(4-chlorophenyl)-5,6-dihydro[1]benzothiepino[5,4-c]pyridazin-3(2H)-one]				activity against BZP receptors [4]: partial agonistic activity
O=c1cc2c(nn1-c1ccc(Cl)cc1)-c1cc(Br)sc1S(=O)(=O)CC2 [Example 65, 9-Bromo-2-(4-chlorophenyl)-5,6-dihydrothieno[2',3':2,3]thiepino[4,5-c]pyridazin-3(2H)-one 7,7-dioxide]	1.4 mg/kg	0.12 nM		
CCc1cc2c(s1)S(=O)(=O)CCc1cc(=O)n(-c3ccc(OC)cc3)nc1-2 [Example 64, 9-Ethyl-2-(4-methoxyphenyl)-5,6-dihydrothieno[2',3':2,3]thiepino[4,5-c]pyridazin-3(2H)-one 7,7-dioxide]	1.4 mg/kg	0.44 nM		
CCCc1cc2c(s1)S(=O)(=O)CCc1cc(=O)n(-c3ccc(Cl)cc3)nc1-2 [Example 71, 2-(4-Chlorophenyl)-9-propyl-5,6-dihydrothieno[2',3':2,3]thiepino[4,5-c]pyridazin-3(2H)-one 7,7-dioxide]			100%	
CC(O)c1cc2c(s1)S(=O)(=O)CCc1cc(=O)n(-c3ccc(Cl)cc3)nc1-2 (centres unmarked) [Example 50, 2-(4-chlorophenyl)-9-(1-hydroxyethyl)-5,6-dihydrothieno[2',3':2,3]thiepino[4,5-c]pyridazin-3(2H)-one 7,7-dioxide]	0.87 mg/kg	0.97 nM		
O=c1cc2c(nn1-c1ccc(Cl)cc1)-c1cc(Br)sc1[S+]([O-])CC2 (centres unmarked) [Example 26, 9-bromo-2-(4-chlorophenyl)-5,6-dihydrothieno[2',3':2,3]thiepino[4,5-c]pyridazin-3(2H)-one 7-oxide]	0.56 mg/kg	1.4 nM		
CCc1cc2c(s1)SCCc1cc(=O)n(-c3ccc(Cl)cc3)nc1-2 [Example 22, 2-(4-chlorophenyl)-9-ethyl-5,6-dihydrothieno[2',3':2,3]thiepino[4,5-c]pyridazin-3(2H)-one]	0.49 mg/kg	1.8 nM		
CCCc1cc2c(s1)SCCc1cc(=O)n(-c3ccc(Cl)cc3)nc1-2 [Example 69, 2-(4-Chlorophenyl)-9-propyl-5,6-dihydrothieno[2',3':2,3]thiepino[4,5-c]pyridazin-3(2H)-one]			80%	
CCc1cc2c(s1)S(=O)(=O)CCc1cc(=O)n(-c3ccc(Cl)cc3)nc1-2 [Example 28, 2-(4-Chlorophenyl)-9-ethyl-5,6-dihydrothieno[2',3':2,3]thiepino[4,5-c]pyridazin-3(2H)-one 7,7-dioxide]	0.23 mg/kg	0.63 nM		minimal effective dose [5]: 2.5 mg/kg
CCc1cc2c(s1)[S+]([O-])CCc1cc(=O)n(-c3ccc(Cl)cc3)nc1-2 (centres unmarked) [Example 25, 2-(4-chlorophenyl)-9-ethyl-5,6-dihydrothieno[2',3':2,3]thiepino[4,5-c]pyridazin-3(2H)-one 7-oxide]	0.66 mg/kg	1.4 nM	80%	
